According to patent US6603023B2 (priority 1996, dated 2003):
Like-named read-outs stand apart in the source and are kept apart here. Marks after values point to notes of the source that are not given here.

Experiments:
[1] = Toxicity in normal nude mice; type: in vivo, athymic nude mice; settings: for body weight course: dEpoB 25 mg/kg daily i.p. for 4 days; for mice died / survived: desoxyepothilone B 25 mg/kg QDx4 i.p.
Experimental: For in vivo studies, paclitaxel in Cremophor-EtOH was further diluted with DMSO as needed. Vinblastine sulfate (Velban) (Eli Lilly & Co. Indianapolis, Ind.), and doxorubicin or adriamycin HCl (DX or Adr) (Pharmacia, Columbus, Ohio) in saline were diluted with DMSO as needed. DMSO was used as a vehicle for epothilones. Each mouse received ≦40 μL DMSO in all experiments.
The toxicity of EpoB and dEpoB was compared in normal athymic nude mice on the daily i.p. schedule. EpoB at 0.6 mg/kg, QDX4, i.p. led to lethality in all eight mice. […] Similar leukopenia was found with paclitaxel. Some obstructive fecal mass in the large intestine was noted following Epo treatments in the preliminary study.

CCRF-CEM/Taxol® = assay: CCRF-CEM/Taxol xenograft, i.v. 6 h infusion; type: in vivo, nude mice
Source text: Treatment on days 6, 8, 10, 12 and 14.
Treatment on days 19, 21, 23, 25, 27, 39, 41, 43, 45 and 47.

[2] = tested on: human mammary carcinoma MX-1 xenograft
Experimental: DMSO was used as a vehicle for epothilones. Each mouse received ≦40 μL DMSO in all experiments.
Athymic nude mice (nu/nu) were used for MX-1 and MCF-7/Adr human mammary carcinoma xenografts. Mice were obtained from Taconic Laboratory Animals and Service (Germantown, N.Y.: outbred, Swiss background).

[3] = CCRF/Taxol Leukemia, dEpoB 30 mg/kg Q2D x 6, Taxol 15 mg/kg Q2D x 6
[4] = 15 mg/kg i.p. Q2Dx5 from day 7, day 11
[5] = 15 mg/kg i.p. Q2Dx5 from day 7, day 13
[6] = 15 mg/kg i.p. Q2Dx5 from day 7, day 15
[7] = 15 mg/kg i.p. Q2Dx5 from day 7, day 17
[8] = 25 mg/kg i.p. Q2Dx5 from day 7, day 11
[9] = 25 mg/kg i.p. Q2Dx5 from day 7, day 13
[10] = 25 mg/kg i.p. Q2Dx5 from day 7, day 15
[11] = 25 mg/kg i.p. Q2Dx5 from day 7, day 17
[12] = 35 mg/kg i.p. Q2Dx5 from day 9, day 13
[13] = 35 mg/kg i.p. Q2Dx5 from day 9, day 15
[14] = 35 mg/kg i.p. Q2Dx5 from day 9, day 17
[15] = 35 mg/kg i.p. Q2Dx5 from day 9, day 19
[16] = 35 mg/kg i.p. d8,10,12,14,16, day 10
[17] = 35 mg/kg i.p. d8,10,12,14,16, day 12
[18] = 35 mg/kg i.p. d8,10,12,14,16, day 14
[19] = 35 mg/kg i.p. d8,10,12,14,16, day 16
[20] = 35 mg/kg i.p. d8,10,12,14,16, day 18
[21] = 40 mg/kg i.p. d18-26, extended after d8-16, day 20
[22] = 40 mg/kg i.p. d18-26, extended after d8-16, day 22
[23] = 40 mg/kg i.p. d18-26, extended after d8-16, day 24
[24] = 40 mg/kg i.p. d18-26, extended after d8-16, day 26
[25] = 40 mg/kg i.p. d18-26, extended after d8-16, day 28

Question: With `C/C1=C/C[C@@H](/C(C)=C/c2csc(C)n2)OC(=O)C[C@H](O)C(C)(C)C(=O)[C@H](C)[C@@H](O)[C@@H](C)CCC1` [Desoxyepothilone B, desoxyepothilone B] as the compound, how does the Died ([1]; 25 mg/kg QD × 4, 6 mice) read?
Answer: The Died was 0.

Question: And the “Disappearance Duration” value ([1]; 25 mg/kg QD × 4, 6 mice)?
Answer: The value was 0.

Question: What about the “Number of mice died” value ([1]; 25 mg/kg, QD × 4, i.p., 6 mice) of the same compound?
Answer: The value was 0.

Question: What about the decrease in lymphocytes ([1]; EpoB 0.6 mg/kg or dEpoB 25 mg/kg, QDx4, i.p., preliminary) of the same compound?
Answer: Its decrease in lymphocytes is 43%.

Question: What about the body weight course ([1]; listed as dEpoB) of the same compound?
Answer: The body weight course was “maintained approximately the same average body weight”.

Question: And the body weight course ([1]; listed as desoxyepothilone B)?
Answer: Its body weight course is “no reduction in average body weight”.

Question: What about the “mice died / survived” value ([1]; 6 mice) of the same compound?
Answer: The value was “all six mice survived”.

Question: And the “mice died / survived” value ([1]; 6 mice, listed as dEpoB)?
Answer: Its value is “zero of six”.

Question: What about the therapeutic outcome (CCRF-CEM/Taxol®; 6 hr i.v. infusion) of the same compound?
Answer: Its therapeutic outcome is “full cure”.

Question: What about the “Therapeutic effect Rank Order” value (CCRF-CEM/Taxol®; CCRF-CEM/Taxol, i.v. infusion) of the same compound?
Answer: Its value is “dEpoB >>> Taxol ®”.

Question: And the “Lowest Average Tumor Size (T/C)” value (CCRF-CEM/Taxol®; [3])?
Answer: The value was 0 T/C.

Question: What about the “Tumor Disappearance” value (CCRF-CEM/Taxol®; [3]) of the same compound?
Answer: The value was 3/3.

Question: And the “Therapeutic Effects dEpoB vs Taxol” value (CCRF-CEM/Taxol®; CCRF/Taxol Leukemia, dEpoB 30 mg/kg Q2D x 6 vs Taxol 15 mg/kg Q2D x 6)?
Answer: The value was “>>>”.

Question: And the “Toxicity Death” value ([2]; 15 mg/kg i.p. Q2Dx5 from day 7)?
Answer: Its value is 0/6.

Question: What about the “Average Body Weight Change” value [2, 4] of the same compound?
Answer: Its value is “+0.8 g”.

Question: And the “Average Tumor Size (T/C)” value [2, 4]?
Answer: Its value is 0.65.

Question: And the “Average Body Weight Change” value [2, 5]?
Answer: Its value is “+1.1 g”.

Question: And the “Average Tumor Size (T/C)” value [2, 5]?
Answer: Its value is 0.46.

Question: And the “Average Body Weight Change” value [2, 6]?
Answer: Its value is “+1.6 g”.

Question: And the “Average Tumor Size (T/C)” value [2, 6]?
Answer: Its value is 0.49**.

Question: What about the “Average Body Weight Change” value [2, 7] of the same compound?
Answer: The value was “+1.5 g”.

Question: And the “Average Tumor Size (T/C)” value [2, 7]?
Answer: The value was 0.41**.

Question: And the “Toxicity Death” value ([2]; 25 mg/kg i.p. Q2Dx5 from day 7)?
Answer: The value was 0/6.

Question: And the “Average Body Weight Change” value [2, 8]?
Answer: Its value is “+0.4 g”.

Question: And the “Average Tumor Size (T/C)” value [2, 8]?
Answer: The value was 0.38*.

Question: And the “Average Body Weight Change” value [2, 9]?
Answer: Its value is “+0.7 g”.

Question: What about the “Average Tumor Size (T/C)” value [2, 9] of the same compound?
Answer: The value was 0.11**.

Question: And the “Average Body Weight Change” value [2, 10]?
Answer: The value was “+1.0 g”.

Question: What about the “Average Tumor Size (T/C)” value [2, 10] of the same compound?
Answer: The value was 0.05***.

Question: And the “Average Body Weight Change” value [2, 11]?
Answer: Its value is “+0.7 g”.

Question: What about the “Average Tumor Size (T/C)” value [2, 11] of the same compound?
Answer: The value was 0.04****.

Question: And the “mice tumor-free (no detectable tumor) on day 35” value ([2]; 25 mg/kg i.p. days 7-15)?
Answer: The value was “one out of six”.

Question: What about the “average tumor volume reduction” value ([2]; 25 mg/kg i.p. days 7-15, day 17) of the same compound?
Answer: The value was at most 96%.

Question: What about the “mice tumor-free (no detectable tumor) on day 35” value ([2]; 25 mg/kg i.p. days 7-15, listed as dEpo B) of the same compound?
Answer: Its value is “#One out of six mice with no detectable tumor on day 35;”.

Question: What about the “mice with no detectable tumor on day 16” value ([2]; 35 mg/kg Q2Dx5 i.p. from day 8) of the same compound?
Answer: The value was “two out of ten”.

Question: What about the “mice with no detectable tumor on day 26” value ([2]; 35 mg/kg d8-16 then 40 mg/kg Q2Dx5 from day 18) of the same compound?
Answer: Its value is “five out of ten”.

Question: And the “mice remaining tumor-free on day 60” value ([2]; 35 mg/kg d8-16 then 40 mg/kg Q2Dx5 from day 18, of ten)?
Answer: Its value is “three”.

Question: What about the “mice tumor-free up to day 80” value ([2]; 35 mg/kg d8-16 then 40 mg/kg d18-26 i.p.) of the same compound?
Answer: Its value is 3/10.

Question: What about the “mice with markedly suppressed tumors” value ([2]; 35 mg/kg d8-16 then 40 mg/kg d18-26 i.p., sacrificed day 50) of the same compound?
Answer: Its value is 7/10.

Question: What about the lethality ([2]; 35 mg/kg i.p. Q2Dx5 from day 8) of the same compound?
Answer: Its lethality is 0/10.

Question: What about the mice survived ([2]; 35 mg/kg i.p. Q2Dx5 from day 8) of the same compound?
Answer: Its mice survived is 10/10.

Question: What about the “mice with tumor non-detectable on day 18” value ([2]; 35 mg/kg i.p. Q2Dx5 from day 8) of the same compound?
Answer: The value was 3 out of 10.

Question: And the tumor volume reduction ([2]; 35 mg/kg i.p. Q2Dx5 from day 8)?
Answer: The tumor volume reduction was 98%.

Question: And the “Toxicity Death” value ([2]; 35 mg/kg i.p. Q2Dx5 from day 9)?
Answer: The value was 0/6.

Question: What about the “Tumor Disapp.” value ([2]; 35 mg/kg i.p. Q2Dx5 from day 9) of the same compound?
Answer: Its value is 3/6.

Question: What about the “Average Body Weight Change” value [2, 12] of the same compound?
Answer: The value was -1.7 g.

Question: What about the “Average Tumor Size (T/C)” value [2, 12] of the same compound?
Answer: Its value is 0.35.

Question: What about the “Average Body Weight Change” value [2, 13] of the same compound?
Answer: Its value is -2.1 g.

Question: What about the “Average Tumor Size (T/C)” value [2, 13] of the same compound?
Answer: Its value is 0.14.

Question: What about the “Average Body Weight Change” value [2, 14] of the same compound?
Answer: The value was -2.1 g.

Question: And the “Average Tumor Size (T/C)” value [2, 14]?
Answer: Its value is 0.04.

Question: And the “Average Body Weight Change” value [2, 15]?
Answer: Its value is -2.4 g.

Question: And the “Average Tumor Size (T/C)” value [2, 15]?
Answer: The value was 0.02.

Question: What about the “# Mice Died” value ([2]; 35 mg/kg i.p. d8,10,12,14,16) of the same compound?
Answer: Its value is 3/10.

Question: What about the “Tumor Disappearance” value ([2]; 35 mg/kg i.p. d8,10,12,14,16) of the same compound?
Answer: Its value is 0/10.

Question: What about the “Average Body Weight Change” value [2, 16] of the same compound?
Answer: The value was -0.1 g.

Question: And the “Average Tumor Volume (T/C)” value [2, 16]?
Answer: The value was 0.42.

Question: What about the “Average Body Weight Change” value [2, 17] of the same compound?
Answer: The value was “+0.7 g”.

Question: What about the “Average Tumor Volume (T/C)” value [2, 17] of the same compound?
Answer: The value was 0.28.

Question: What about the “Average Body Weight Change” value [2, 18] of the same compound?
Answer: The value was -0.3 g.

Question: What about the “Average Tumor Volume (T/C)” value [2, 18] of the same compound?
Answer: Its value is 0.07.

Question: What about the “Average Body Weight Change” value [2, 19] of the same compound?
Answer: The value was -1.7 g.

Question: And the “Average Tumor Volume (T/C)” value [2, 19]?
Answer: Its value is 0.04.

Question: And the “Average Body Weight Change” value [2, 20]?
Answer: The value was -1.6 g.

Question: What about the “Average Tumor Volume (T/C)” value [2, 20] of the same compound?
Answer: Its value is 0.02.

Question: And the “# Died” value ([2]; 40 mg/kg i.p. d18-26, extended after d8-16)?
Answer: The value was 0/10.

Question: What about the “Average Tumor Disappearance Duration (Day)” value ([2]; 40 mg/kg i.p. d18-26, extended after d8-16, (5/10)) of the same compound?
Answer: The value was 44(5/10) Day.

Question: And the “Average Body Weight Change” value [2, 21]?
Answer: Its value is -1.7 g.

Question: And the “Tumor Disappearance” value [2, 21]?
Answer: Its value is 2/10^b.

Question: And the “Average Body Weight Change” value [2, 22]?
Answer: The value was -2.4 g.

Question: And the “Tumor Disappearance” value [2, 22]?
Answer: The value was 2/10.

Question: And the “Average Body Weight Change” value [2, 23]?
Answer: Its value is -2.4 g.

Question: And the “Tumor Disappearance” value [2, 23]?
Answer: The value was 3/10.

Question: What about the “Average Body Weight Change” value [2, 24] of the same compound?
Answer: The value was -1.4 g.

Question: What about the “Tumor Disappearance” value [2, 24] of the same compound?
Answer: Its value is 5/10.

Question: What about the “Average Body Weight Change” value [2, 25] of the same compound?
Answer: Its value is -1.2 g.

Question: What about the “Tumor Disappearance” value [2, 25] of the same compound?
Answer: The value was 5/10.

Question: And the “lethality and body weight” value ([2]; 15 and 25 mg/kg i.p. days 7-15)?
Answer: Its value is “no lethality nor body weight reduction”.
